Assay results published in patent publication US20240058363A1 (Emyria, priority 2020, published 2024).
Marks after values point to notes of the source that are not given here.

Test system: symptoms of insomnia
Assay: Insomnia Severity Index (ISI) score in patients treated with CBD only
Type: in vivo, human
Parameters: key to Change in ISI score, Visit 1 coefficient in model with interaction terms / Change in ISI score between Visit 0 and Visit 1, by initial assessment category / Change in ISI score between Visit 0 and Visit 3 (third follow-up): change in Insomnia Severity Index (7-item self-report) score
Protocol: Insomnia may present as disturbed sleep, inability to get to sleep, inability to stay asleep and/or sleep that leaves the subject tired upon waking. The insomnia may be assessed using the Insomnia Severity Index (ISI) 7-item self-report questionnaire. […] More importantly perhaps, this global measure has been employed in number of recent clinical trials to assess the responses in insomnia to a wide variety of treatments.
Patients were assessed for inclusion/exclusion using the same screening criteria and population criteria collected for evaluation as in Example 1. Dosing regimens were the same as Example 1.
Column (1) first presents results from a pooled specification with a time specific dummy variable capturing the first follow-up visit (i.e., Visit 1) as the sole explanatory variable. […] Notice that the constant term (i.e., the intercept) reflects the average ISI score of 14.145 at baseline.
Column (2) then incorporates patient-fixed effects. Note that when including fixed effects at the person level, the constant term is dropped from the regression, as it is differenced out by the fixed effects estimator—in addition to any other (un)observable time-invariant individual characteristics which may influence ISI scores (such as personality traits or beliefs). As for our coefficient of interest, it continues to emerge as negative and statistically significant. In fact, it remains virtually unchanged from column (1) since the pooled data contains exactly two observations for each patient.
Finally, column (3) introduces interaction terms between the time dummy variable and binary indicators of starting with an ISI score in the ‘subthreshold insomnia’, ‘clinical insomnia (moderate severity)’, or ‘clinical insomnia (severe)’ category at baseline. The reference category here is determined by patients in the ‘no clinically significant insomnia’ category. Consistent with the visuals from FIG. 1, the reduction in insomnia score at the first follow-up is primarily driven by those who start in the ‘subthreshold insomnia’ category or higher at baseline.
Exploring this issue of persistence further, Table 9 presents regression-equation checks. In particular, column (1) replicates the benchmark results showing the change in […] between baseline and the first follow-up visit. Columns (2) and columns (3) then re-estimate the results between baseline and the second follow-up visit, and baseline and the third follow-up visit respectively.

C=C(C)C1CCC(C)=CC1c1c(O)cc(CCCCC)cc1O (stereo not shown) [cannabidiol, 2-[3-methyl-6-(1-methylethenyl)-2-cyclohexen-1-yl]-5-pentyl-1,3-benzenediol]
Persistence of decrease in insomnia severity (after 4 and 6 months (Visits 2 and 3) of CBD only treatment): decrease in insomnia severity persists
Decrease in insomnia score (average treatment window of slightly under 13 days): −5.0
Fall in insomnia score (mean treatment horizon of 22 days): −4.1
Decline in insomnia score (mean treatment period of 7 days): −7.2
Change in ISI score between Visit 0 and Visit 3 (third follow-up) (patient fixed effects, N 292, baseline mean 14.145, about 6 months, SE 0.854, p < 0.001): −4.313***
Change in ISI score between Visit 0 and Visit 2 (second follow-up) (patient fixed effects, N 349, baseline mean 14.145, about 4 months, SE 0.581, p < 0.001): −4.141***
Response of ISI score to treatment (patients beginning in the 'no clinically significant insomnia' category): do not exhibit any meaningful response
Mean ISI scores by baseline ISI category, initial versus first follow-up visit (FIG. 10) (patients starting with subthreshold, moderate and severe clinical insomnia, mean 46.9 days between visits): significantly lower mean ISI scores in the first follow-up visit
Average ISI scores over the first six months (FIG. 13) (patients with subthreshold and clinically significant insomnia scores at baseline): significant reduction over the 6-month period
Short-term change in ISI score from baseline to first follow-up (Visit 1 coefficient) (pooled specification, no patient fixed effects, 228 patients, baseline mean 14.145, average 46.9 days, SE 0.393, p < 0.001): −3.254***
Change in ISI score between visits versus cannabidiol dosage (prescribed between approximately 10 mg to 200 mg): report less insomnia at the first follow-up visit
Change in ISI score, Visit 1 coefficient in model with interaction terms (reference category 'no clinically significant insomnia' at baseline, patient fixed effects, 228 patients, SE 0.646, not significant): 0.959
Change in ISI score, Visit 1 × subthreshold insomnia interaction coefficient (relative to 'no clinically significant insomnia', patient fixed effects, 228 patients, SE 0.901, p < 0.001): −3.308***
Change in ISI score, Visit 1 × clinical insomnia (moderate severity) interaction coefficient (relative to 'no clinically significant insomnia', patient fixed effects, 228 patients, SE 0.970, p < 0.001): −6.231***
Change in ISI score, Visit 1 × clinical insomnia (severe) interaction coefficient (relative to 'no clinically significant insomnia', patient fixed effects, 228 patients, SE 1.039, p < 0.001): −7.122***
Change in ISI score between Visit 0 and Visit 1, by initial assessment category (subsample Clinical insomnia (moderate severity), 70 patients, baseline mean 17.757, SE 0.726, p < 0.001): −5.271***
Change in ISI score between Visit 0 and Visit 1, by initial assessment category (subsample Clinical insomnia (severe), 43 patients, baseline mean 24.256, SE 0.823, p < 0.001): −6.163***
Change in ISI score between Visit 0 and Visit 1, by initial assessment category (subsample No clinically significant insomnia, 49 patients, baseline mean 3.857, SE 0.652, not significant): 0.959
Change in ISI score between Visit 0 and Visit 1, by initial assessment category (subsample Subthreshold insomnia, 66 patients, baseline mean 11.364, SE 0.631, p < 0.001): −2.349***
